Measured values taken from patent US20100249234A1, “METHODS OF REDUCING VIRULENCE IN BACTERIA” (UWM RESEARCH FOUNDATION, INC., priority 2007, published 2010).

Experiments:
Format in all cases: cell-based, Dickeya dadantii 3937 (Ech3937)
hrpA promoter = hrpA promoter activity, GFP reporter plasmid phrpA, flow cytometry (FACS); conditions: for GFP intensity (Mean Fluorescence Intensity) of Ech-Rif (phrpA) / GFP intensity (Mean Fluorescence Intensity) of Ech137 (phrpA): MM + 0.1 mM OCA; for GFP intensity (Mean Fluorescence Intensity) of Ech137 (phrpA): gacA mutant Ech137
Procedure: FACS analysis of promoter activity of dspE, hrpA, hrpL, hrpN, and hrpS was carried out as described (Peng et al., 2006). Briefly, the wild-type Ech3937 and the mutant strains carrying the promoter reporter plasmid were grown on LB broth at 28° C. overnight and transferred to appropriate media. For FACS analysis, samples were collected by centrifugation, washed with 1× phosphate buffer saline (PBS) at 13,000 rpm for 1 min, and re-suspended in 1×PBS to ca 10^6 CFU/ml prior to being run in a FACS Calibur flow cytometer (BD Biosciences, CA). Three replicates were performed for each treatment.
To identify potential compounds that repress activation of T3SS, analogs and isomers of TCA and intermediates of salicylic acid and phenypropanoid biosynthesis pathways in plants were further screened for their effect on Ech3937 hrpA expression by flow cytometry (Table 9). A green fluorescent protein (GFP) reporter plasmid phrpA (pProbe-AT derivative with PCR fragment containing hrpA promoter region) was constructed, resulting in a transcriptional fusion of hrpA promoter with GFP gene. Bacterial cells containing phrpA plasmid were grown in MM supplemented with 0.1 mM of each compound. GFP intensity, which is a measurement of hrpA promoter activity, was measured by flow cytometry.

hrpN promoter = hrpN promoter activity, GFP reporter plasmid phrpN, flow cytometry (FACS); conditions: for GFP intensity (Mean Fluorescence Intensity) of Ech138 (phrpN): iaaM mutant Ech138, MM + 0.1 mM OCA
hrpA mRNA = assay: qRT-PCR relative mRNA level of hrpA; conditions: MM supplemented with 0.1 mM OCA (FIG. 4)
Procedure: (§1) Bacterial strains were grown in MM. Total RNA from the bacterial cells was isolated by using the TRI reagent method (Sigma, Mo.) and treated with Turbo DNA-free DNase kits (Ambion, TX) as described (Peng et al., 2006). An iScript cDNA Synthesis Kit (Bio-Rad, CA) was used to synthesize cDNA from 0.5 μg of treated total RNA. The Real Master Mix (Eppendorf, Westbury, N.Y.) was used for qRT-PCR reaction to quantify the cDNA level of target genes in different samples. The rplU was used as the endogenous control for data analysis. qRT-PCR data were analyzed using Relative Expression Software Tool as described (Pfaffl, M. W., Horgan, G. W., and Dempfle, L. (2002) Relative expression software tool (REST) for group-wise comparison and statistical analysis of relative expression results in real-time PCR. Nucleic Acids Res 30:e36.).

dspE mRNA = assay: qRT-PCR relative mRNA level of dspE; conditions: MM supplemented with 0.1 mM OCA (FIG. 4)
Procedure: as §1

Ech3937 = assay: Growth of Ech3937 in MM supplemented with compound; conditions: 0.05, 0.1 and 0.2 mM in MM (FIGS. 2A, 2B)
Description: Phenolic compounds constitute an important class of organic substances produced by plants. The phenolic compound SA is a signaling molecule that plays a role in host defenses. OCA and TCA are the biosynthetic precursors of SA and are also reported to induce the expression of defense-related genes in plants. OCA, TCA, and SA were examined to elucidate their effects on the expression of T3SS genes. The expression of the T3SS gene hrpN was examined in MM and MM supplemented with OCA, TCA, and SA, at concentrations of 0.05, 0.1, and 0.2 mM, respectively. FIGS. 2A and 2B show the promoter activities of hrpN in Dickeya dadantii 3937 (Ech3937) grown in MM and MM supplemented with 0.05, 0.1, and 0.2 mM OCA, TCA, and SA at 12 h (FIG. 2A) and 24 h (FIG. 2B) post-inoculation. GFP intensity was determined on gated populations of bacterial cells by flow cytometry and analyzed with the Cell Quest software (BD Biosciences, San Jose, Calif.). The growth of Ech3937 in MM supplemented with different concentrations of OCA, TCA and SA was recorded. Compared with MM alone, the average GFP fluorescence intensity of bacterial cells of Ech3937 (phrpN) was increased approximately 4-fold when 0.05 mM of OCA and TCA were added to the medium (FIGS. 2A, 2B).
The expression of the T3SS gene hrpA was further examined in MM and MM supplemented with PCA at concentrations of 0.001, 0.005, 0.01, 0.05 and 0.1 mM respectively. FIGS. 16A and 16B show the promoter activities of hrpA in Dickeya dadantii 3937 (Ech3937) grown in minimum medium (MM) and MM supplemented with different amount of p-coumaric acid (PCA) at 12 h (FIG. 16A) and 24 h (FIG. 16B) post-inoculation. GFP intensity was determined on gated populations of bacterial cells by flow cytometry and analyzed with the Cell Quest software (BD Biosciences, San Jose, Calif.). The growth of Ech3937 in MM supplemented with different concentrations of PCA was recorded. Compared with MM alone, the average GFP fluorescence intensity of bacterial cells of Ech3937 (phrpA) was reduced more than 4-fold when 0.05 and 0.1 mM of PCA were added to the medium (FIGS. 16A, 16B).

hrpS mRNA = assay: qRT-PCR relative mRNA level of hrpS; conditions: MM supplemented with OCA, p>0.5 (FIG. 4)
Procedure: as §1

hrpL mRNA = assay: qRT-PCR relative mRNA level of hrpL; conditions: 0.1 mM OCA, 12 h of growth, P<0.01
Procedure: as §1

[1] = MM + 0.1 mM compound, 12 h (Table 4)
[2] = hrpL mutant WPP96, MM + 0.1 mM compound, 12 h (Table 4)

O=C(O)/C=C/c1ccccc1O [OCA, o-coumaric acid]
average GFP fluorescence intensity of Ech3937 (phrpA) compared with MM alone (hrpA promoter; 0.1 mM compound, 12 h): doubled
GFP intensity (Mean Fluorescence Intensity) of Ech-Rif (phrpA) (hrpA promoter; 6 h): 18 ± 0
GFP intensity (Mean Fluorescence Intensity) of Ech-Rif (phrpA) (hrpA promoter; 12 h): 51 ± 2
GFP intensity (Mean Fluorescence Intensity) of Ech-Rif (phrpA) (hrpA promoter; 24 h): 49 ± 1
expression of hrpA, GFP intensity (Mean Fluorescence Intensity), Ech3937 carrying phrpA (hrpA promoter; MM + 0.1 mM compound, 6 h (Table 9)): 15.5 ± 1.1
GFP intensity (Mean Fluorescence Intensity) of Ech3937 (phrpA) (hrpA promoter; [1]): 82 ± 1
expression of hrpA, GFP intensity (Mean Fluorescence Intensity), Ech3937 carrying phrpA (hrpA promoter; MM + 0.1 mM compound, 12 h (Table 9)): 115.5 ± 7.9
expression of hrpA, GFP intensity (Mean Fluorescence Intensity), Ech3937 carrying phrpA (hrpA promoter; MM + 0.1 mM compound, 24 h (Table 9)): 225.8 ± 15.6
GFP intensity (Mean Fluorescence Intensity) of Ech137 (phrpA) (hrpA promoter; 6 h): 4.9 ± 0.1
GFP intensity (Mean Fluorescence Intensity) of Ech137 (phrpA) (hrpA promoter; 12 h): 5.9 ± 0.1
GFP intensity (Mean Fluorescence Intensity) of Ech137 (phrpA) (hrpA promoter; 24 h): 8.3 ± 0
GFP intensity (Mean Fluorescence Intensity) of WPP96 (phrpA) (hrpA promoter; [2]): 6.5 ± 0.2
increase of average GFP fluorescence intensity of Ech3937 (phrpN) compared with MM alone (hrpN promoter; 0.05 mM compound added to MM, 12 h and 24 h (FIGS. 2A, 2B)): approximately 4 fold
induction of hrpN expression in Ech3937 and in hrpX (WPP67), hrpY (WPP92), hrpS (WPP90) mutants (hrpN promoter; 0.1 mM compound in MM, 12 h (FIG. 5)): induced the expression of hrpN in Ech3937, but not in hrpX, hrpY, and hrpS mutants
GFP intensity (Mean Fluorescence Intensity) of Ech3937 (phrpN) (hrpN promoter; MM + 0.1 mM OCA (MMOCA), 6 h (Table 5)): 31 ± 3
GFP intensity (Mean Fluorescence Intensity) of Ech3937 (phrpN) (hrpN promoter; MM + 0.1 mM OCA (MMOCA), 12 h (Table 5)): 91 ± 8
GFP intensity (Mean Fluorescence Intensity) of Ech3937 (phrpN) (hrpN promoter; MM + 0.1 mM OCA (MMOCA), 24 h (Table 5)): 78 ± 8
GFP intensity (Mean Fluorescence Intensity) of Ech3937 (phrpN) (hrpN promoter; [1]): 94 ± 3
GFP intensity (Mean Fluorescence Intensity) of WPP96 (phrpN) (hrpN promoter; [2]): 3.3 ± 0.1
GFP intensity (Mean Fluorescence Intensity) of Ech138 (phrpN) (hrpN promoter; 6 h): 9.1 ± 1.6
GFP intensity (Mean Fluorescence Intensity) of Ech138 (phrpN) (hrpN promoter; 12 h): 33 ± 5
GFP intensity (Mean Fluorescence Intensity) of Ech138 (phrpN) (hrpN promoter; 24 h): 39 ± 5
hrpA mRNA compared with MM alone (qRT-PCR) (hrpA mRNA): significantly higher amount
dspE mRNA compared with MM alone (qRT-PCR) (dspE mRNA): significantly higher amount
bacterial growth of Ech3937 in supplemented MM (Ech3937): No reduction of bacterial growth
hrpS gene expression, MM vs supplemented MM (qRT-PCR) (hrpS mRNA): No significant difference
hrpL mRNA compared with MM alone (qRT-PCR) (hrpL mRNA): about 3 fold
